Legend:
[1] = tested on: oil field isolated anaerobic SRB consortium; assay: Biocidal efficacy (MBC) against SRB, 40° C. for 24 hour; format: cell-based, sulfate reducing bacteria (SRB); settings: alone or in the combination, minimum tested biocide concentration for bacteria kill, 10^6 to 10^7 CFU/mL
Description: The synergy indexes reported in the following examples are calculated using the following equation: Synergy Index=Ca/CA+Cb/CB where Ca: Concentration of biocide A required to achieve a certain level or complete bacterial kill when used in combination; CA: Concentration of biocide A required to achieve a certain level or complete bacterial kill when used alone; Cb: Concentration of biocide B required to achieve a certain level or complete bacterial kill when used in combination; and CB: Concentration of biocide B required to achieve a certain level or complete bacterial kill when used alone. A synergy index (SI) of 1 indicates additivity, a synergy index of less than 1 indicates synergy, and a synergy index greater than 1 indicates antagonism. Various methods known to those skilled in the art can be used for evaluating biocidal efficacy. In the examples below, aliquots of the biocide-treated samples are removed at predetermined time points and the biocide concentration required to achieve a certain level or complete bacterial kill is determined by culture-based methods including serial dilution. […] After the mixtures are incubated at 40° C. for 24 hour, the biocidal efficacy is determined by minimum tested biocide concentration for bacteria kill in the aliquots (MBC). […]

[2] = tested on: oilfield SRB consortium; assay: Biocidal efficacy against SRB under high temperature and sulfide-rich conditions; format: cell-based, sulfate reducing bacteria (SRB); settings: alone or in the combination, 80° C. anaerobic, daily challenge with SRB and 10 ppm sulfide
Description: The synergy indexes reported in the following examples are calculated using the following equation: Synergy Index=Ca/CA+Cb/CB where Ca: Concentration of biocide A required to achieve a certain level or complete bacterial kill when used in combination; CA: Concentration of biocide A required to achieve a certain level or complete bacterial kill when used alone; Cb: Concentration of biocide B required to achieve a certain level or complete bacterial kill when used in combination; and CB: Concentration of biocide B required to achieve a certain level or complete bacterial kill when used alone. […] In the examples below, aliquots of the biocide-treated samples are removed at predetermined time points and the biocide concentration required to achieve a certain level or complete bacterial kill is determined by culture-based methods including serial dilution. […] After incubation for 2 h the biocidal efficacy is evaluated against the field SRB consortium at 40° C. for 2 h. After incubation for 7 days the biocidal efficacy are evaluated again for 24 h. The biocidal efficacy is determined by the lowest testing biocide dosage concentration required to achieve a 3 log 10 or greater bacterial reduction, of both 2 hours and 7 days heat and SRB-sulfide exposure. Synergy Index is then calculated. […]

Structure (SMILES) | MBC (active ppm) TA ([1]; concentration of TA) [active ppm] | Dosage required for 3log10 bacterial reduction of both 2 h and 7 day heat and SRB-sulfide exposure (active ppm) TA ([2]; concentration of TA) [active ppm] | MBC (active ppm) BNPD ([1]; concentration of BNPD) [active ppm] | Dosage required for 3log10 bacterial reduction of both 2 h and 7 day heat and SRB-sulfide exposure (active ppm) BNPD ([2]; concentration of BNPD) [active ppm]
O=[N+]([O-])C(CO)(CO)CO [0:1, tris(hydroxymethyl)nitromethane] | 36.5 | 360.0 | – | –
O=[N+]([O-])C(Br)(CO)CO [1:0, 2-bromo-2-nitro-1,3-propanediol] | – | – | 3.5 | 180.0

Reference: US8993638B2, “Brominated nitroalkanol compositions and their use as biocides” (Dow Global Technologies LLC, priority 2009, dated 2015)
